The record followed here is patent US7985765B2, “Therapeutic substituted pyrroles” (Allergan, Inc., priority 2008, dated 2011).

The target in test [1] is T1, EP2 (Homo sapiens, UniProt P43116). The test is described as follows: EP2 binding (Ki). From the text:
(§1) US 2007/0129552, incorporated by reference herein, describes the methods used to obtain the in vitro data in the table below.

For test [2], the target named is T1, EP2. The test is described as follows: EP2 cAMP assay. Format: cell-based.
Excerpt: as §1

Another test deals with EP4 (Homo sapiens, UniProt P35408). The test is described as follows: EP4 binding (Ki).
Excerpt: as §1

A further test addresses T2, hDP (Homo sapiens, UniProt Q13258).
T2 sequence (Q13258 1-359): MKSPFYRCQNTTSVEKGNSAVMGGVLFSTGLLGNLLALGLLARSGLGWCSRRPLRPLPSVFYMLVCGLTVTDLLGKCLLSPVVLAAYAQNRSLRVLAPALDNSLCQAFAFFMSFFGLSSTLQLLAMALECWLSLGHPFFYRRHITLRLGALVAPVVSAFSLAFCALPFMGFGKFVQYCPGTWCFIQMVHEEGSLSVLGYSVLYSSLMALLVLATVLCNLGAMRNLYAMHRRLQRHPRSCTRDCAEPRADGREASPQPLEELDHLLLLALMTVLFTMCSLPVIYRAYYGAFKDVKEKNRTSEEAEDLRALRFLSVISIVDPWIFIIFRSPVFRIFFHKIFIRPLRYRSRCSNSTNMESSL
Put plainly: Other receptors functional assay, hDP. It is filed as cell-based.
Excerpt: as §1

Test [3] concerns the target T1, EP2. The test is described as follows: EP2 flipr functional assay. It is filed as cell-based.
Excerpt: as §1

T1 sequence (P43116 whole entry): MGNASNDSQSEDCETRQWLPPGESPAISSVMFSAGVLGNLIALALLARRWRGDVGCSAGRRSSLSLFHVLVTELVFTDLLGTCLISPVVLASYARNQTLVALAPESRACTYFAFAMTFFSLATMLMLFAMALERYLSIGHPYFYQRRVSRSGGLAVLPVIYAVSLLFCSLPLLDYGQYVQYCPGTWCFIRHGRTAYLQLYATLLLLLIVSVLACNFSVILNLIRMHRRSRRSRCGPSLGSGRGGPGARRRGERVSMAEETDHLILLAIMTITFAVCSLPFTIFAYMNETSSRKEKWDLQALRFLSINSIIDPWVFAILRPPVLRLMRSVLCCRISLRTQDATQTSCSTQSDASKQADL
Sequence of EP4 (P35408 whole entry): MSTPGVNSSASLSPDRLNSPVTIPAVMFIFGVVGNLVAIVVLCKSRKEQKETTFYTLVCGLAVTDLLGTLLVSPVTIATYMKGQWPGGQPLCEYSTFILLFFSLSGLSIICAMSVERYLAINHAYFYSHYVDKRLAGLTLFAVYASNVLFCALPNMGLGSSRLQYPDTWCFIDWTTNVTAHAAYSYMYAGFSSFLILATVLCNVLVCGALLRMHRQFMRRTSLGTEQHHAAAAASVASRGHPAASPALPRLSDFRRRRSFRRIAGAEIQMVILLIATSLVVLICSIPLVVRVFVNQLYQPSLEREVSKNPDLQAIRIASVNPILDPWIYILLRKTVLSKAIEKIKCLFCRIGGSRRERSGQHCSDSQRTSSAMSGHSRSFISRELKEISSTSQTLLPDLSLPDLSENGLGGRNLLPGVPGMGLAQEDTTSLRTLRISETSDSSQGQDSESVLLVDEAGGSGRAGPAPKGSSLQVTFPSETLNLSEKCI

As for `CCCCCCc1ccc(-n2cccc2CCCc2ccc(C(=O)O)s2)cc1` [Example 1, 5-(3-(1-(4-hexylphenyl)-1H-pyrrol-2-yl)propyl)thiophene-2-carboxylic acid], the Ki (as a rule, the equilibrium dissociation constant of an inhibitor or competing ligand from its target) at EP2 [1] was 0.046 µM; at EP4 it was 3.98 µM. Also, the EC50 (usually the concentration giving half of the maximal effect) at EP2 [2] was 0.0007 µM; on hDP, 2190 nM; at EP2 [3] it was 2.82 µM.
